How the values were obtained:
[1] = system: Gingiva-FT gingival tissue equivalents; assay: Mucosal irritation and barrier integrity of mouthwashes on intact Gingiva-FT
Experimental: To evaluate the use of 3D cultured gingival tissue equivalents of the present invention for mucosal irritation, we investigated the impact of 2 commercially available mouthwashes. To mimic the actual use case scenario, gingival tissue equivalents (surface area 0.78 cm^2) were exposed to 130 μl alcohol-free (Listerine® Gum care Zero) or alcohol-based (Listerine® Cool Mint) mouthwashes for 30 secs, washed, and cultured. After 10 hours, the tissues were re-exposed to the respective mouthwash, washed and cultured for 24 hours. Phosphate buffered saline (PBS) and 1% sodium lauryl sulphate was used as negative and positive controls respectively. Based on the OECD TG439 guidelines, 50% cellular viability was set as threshold for classification of mucosal irritants.

[2] = system: lamina propria equivalents; assay: Mucosal irritation of mouthwashes on lamina propria equivalents (oral ulcer model)
Experimental: Oral ulcers are one of the most common disturbances in the oral cavity. Since, the oral ulcers is devoid of the overlying epithelium, the barrier function provided by the epithelium is lost. […] To evaluate the use of 3D cultured lamina propria equivalents as a model of oral ulcers, we investigated the impact of 2 commercially available mouthwashes for mucosal irritation. To mimic the actual use case scenario, gingival tissue equivalents (surface area 0.78 cm^2) were exposed to 130 μl alcohol-free (Listerine® Gum care Zero) or alcohol-based (Listerine® Cool Mint) mouthwashes for 30 secs, washed, and cultured. After 10 hours, the tissues were re-exposed to the respective mouthwash, washed and cultured for 24 hours. Phosphate buffered saline (PBS) and 1% sodium lauryl sulphate was used as negative and positive controls respectively. Based on the OECD TG439 guidelines, 50% cellular viability was set as threshold for classification of mucosal irritation.

[3] = system: Gingiva-FT gingival tissue equivalents; assay: Mucosal corrosion on Gingiva-FT (OECD TG431); format: cell-based, human; conditions: for tissue disruption: Gingiva-FT
Experimental: Some excipients used to incorporate the actives and formulate oral/dental care products and pharmaceuticals, have the potential to cause mucosal corrosion similar to caustic substances like acids and bases. […] Based on the OECD TG431 guidelines, 50% and 15% cellular viability was set as thresholds for 3 min and 60 min exposures respectively.

[4] = exposure 30 secs twice, 24 hours culture
[5] = lamina propria equivalents, exposure 30 secs twice, 24 hours culture

Row | Structure (SMILES) | TUNEL staining (apoptosis/cell death) [1, 4] | cytotoxicity (LDH assay) [1, 4] | tissue / epithelial disruption [1, 4] | cellular viability ([1]; exposure 30 secs, re-exposed after 10 hours, cultured 24 hours, 50% threshold (OECD TG439)) [%] | cellular viability ([2]; lamina propria equivalents (ulcer model), exposure 30 secs, re-exposed after 10 hours, cultured 24 hours, 50% threshold (OECD TG439)) [%] | TUNEL staining (apoptosis/cell death) [2, 5] | cytotoxicity (LDH assay) [2, 5] | tissue disruption [2, 5] | tissue disruption ([3]; 3 min exposure) | tissue disruption ([3]; 60 min exposure) | mucosal corrosion classification ([3]; OECD TG431)
1 | CCCCCCCCCCCCOS(=O)(=O)[O-].[Na+] [1% sodium lauryl sulphate, sodium lauryl sulphate] | TUNEL positivity | markedly increased cytotoxicity | significant tissue disruption | < 50 | < 50 | TUNEL positivity | markedly increased cytotoxicity | significant tissue disruption |  |  | 
2 | O=P(O)(O)O [37% phosphoric acid, phosphoric acid] |  |  |  |  |  |  |  |  | tissue disruption | almost complete lysis of the tissues | corrosive (category 1A)
